Assay results: ChEMBL document CHEMBL1153152, “Amino acid based enantiomerically pure 3-substituted benzofused heterocycles: A new class of antithrombotic agents” (Bioorg Med Chem Lett, 2010)

Tests used:
Mus musculus [1] = test: Toxicity in mouse assessed as increase in bleeding time at 30 mg/kg, po; type: organism-based; parameters: dose 30 mg/kg, route oral; conditions: in vivo
Mus musculus [2] = test: Antithrombotic activity in mouse assessed as protection against collagen and adrenaline-induced hind limb paralysis at 30 mg/kg, po for 60 mins; type: functional, Hindlimb

| SMILES | Activity (Mus musculus [1]) | Activity (Mus musculus [2]) |
| --- | --- | --- |
| COc1ccc2c(c1)CN(S(=O)(=O)c1ccc(C)cc1)[C@@H](Cc1c[nH]c3ccccc13)CO2 | 12% | 20% |
| Cc1ccc(S(=O)(=O)N2Cc3ccccc3OC[C@@H]2Cc2ccccc2)cc1 | Non-toxic | 20% |
| Cc1ccc(S(=O)(=O)N2Cc3ccccc3OC[C@@H]2CC(C)C)cc1 | 60% | 10% |
| Cc1ccc(S(=O)(=O)N2C[C@H](Cc3ccccc3)N(S(=O)(=O)c3ccc(C)cc3)Cc3ccccc32)cc1 | 13% | 20% |
| Cc1ccc(S(=O)(=O)N2Cc3ccccc3OC[C@@H]2C(C)C)cc1 | 22% | 20% |
| Cc1ccc(S(=O)(=O)N2C[C@H](Cc3ccc(OCc4ccccc4)cc3)N(S(=O)(=O)c3ccc(C)cc3)CCc3ccccc32)cc1 | Non-toxic | 30% |
| COc1ccc2c(c1)CN(S(=O)(=O)c1ccc(C)cc1)[C@@H](CC(C)C)CO2 | 6% | 30% |
| Cc1ccc(S(=O)(=O)N2CCc3ccccc3OC[C@@H]2C)cc1 | Non-toxic | 40% |
| CC(=O)Oc1ccccc1C(=O)O [ASPIRIN] | 100% | 37% |
| Cc1ccc(S(=O)(=O)N2Cc3ccccc3SC[C@@H]2Cc2ccc(OCc3ccccc3)cc2)cc1 | 28% | 10% |
| Cc1ccc(S(=O)(=O)N2Cc3ccccc3OC[C@@H]2C)cc1 | 25% | 20% |
| Cc1ccc(S(=O)(=O)N2C[C@H](Cc3ccc(OCc4ccccc4)cc3)N(S(=O)(=O)c3ccc(C)cc3)Cc3ccccc32)cc1 | 4% | 20% |
| COc1cccc2c1OC[C@H](Cc1ccc(O)cc1)N(S(=O)(=O)c1ccc(C)cc1)C2 | 24% | 45% |
| Cc1ccc(S(=O)(=O)N2CCc3ccccc3OC[C@@H]2Cc2ccc(O)cc2)cc1 | Non-toxic | 40% |
| Cc1ccc(S(=O)(=O)N2Cc3ccccc3OC[C@@H]2Cc2c[nH]c3ccccc23)cc1 | 33% | 40% |
| Cc1ccc(S(=O)(=O)N2C[C@H](Cc3ccccc3)N(S(=O)(=O)c3ccc(C)cc3)CCc3ccccc32)cc1 | 22% | 20% |
| Cc1ccc(S(=O)(=O)N2Cc3ccccc3OC[C@@H]2Cc2ccc(O)cc2)cc1 | Non-toxic | 0% |
